Data set [1] concerns trypomastigote forms of T. cruzi (Y strain). More on the design: method as in PMID 18688888. The settings on record: in vitro, read-out: IC50 against trypomastigote forms of T. cruzi; cited from earlier work.
The test system of data set [2] is Leishmania donovani (amastigotes, MHOM-ET-67/L82 strain). Nature of the data set: In vitro activity against Leishmania donovani. As to conditions: for IC50: Leishmania donovani, MHOM-ET-67/L82 strain, amastigotes, geometric mean of 2 experiments ±SE (values marked a: only one experiment), read-out: IC50 L. donovani; for SI L. donovani: selectivity index determined with L6 cells. The class given is cell-based. How it is done:
(§1) As part of an extensive screening of Asteraceae from the Brazilian “Cerrado”, extracts obtained from the leaves of Aldama discolor with solvents of different polarity (n-hexane (Hex), dichloromethane (DCM), ethyl acetate (EtOAc) and methanol (MeOH)) were tested for in vitro activity against Trypanosoma brucei rhodesiense (bloodstream trypomastigotes), T. cruzi (intracellular amastigotes), Leishmania donovani (axenic amastigotes) and Plasmodium falciparum (intraerythrocytic forms). Each extract was tested at two concentrations, 2 and 10 μ g/mL, for growth inhibitory activity (% GI) against the various parasites.
(§2) In vitro tests for the activity against Trypanosoma brucei rhodesiense (bloodstream trypomastigotes, STIB 900 strain), T. cruzi (amastigotes, Tulahuen C4 strain), Leishmania donovani (amastigotes, MHOM-ET-67/L82 strain), Plasmodium falciparum (intraerythrocytic forms, NF54 IEF strain), as well as for cytotoxicity against mammalian cells (L6-cell-line from rat-skeletal myoblasts) were performed according to established protocols as reported previously, e.g, in [33].

For data set [3], the system named is Trypanosoma brucei rhodesiense (bloodstream trypomastigotes, STIB 900 strain). Nature of the data set: In vitro activity against Trypanosoma brucei rhodesiense. It counts as cell-based. The settings on record: for IC50: Trypanosoma brucei, read-out: IC50 T. b. rhodesiense; for SI T. b. rhodesiense: selectivity index determined with L6 cells. How it is done:
as §1, §2

The subject of data set [4] is T. cruzi (amastigotes, Tulahuen C4 strain). Nature of the data set: In vitro activity against T. cruzi. It counts as cell-based, Trypanosoma cruzi. As to conditions: for IC50: Trypanosoma cruzi, Tulahuen C4 strain, amastigotes, geometric mean of 2 experiments ±SE (values marked a: only one experiment); for SI T. cruzi: selectivity index determined with L6 cells. How it is done:
as §1, §2

Data set [5] deals with Plasmodium falciparum (intraerythrocytic forms, NF54 IEF strain). Kind of data set: In vitro activity against Plasmodium falciparum. The class given is cell-based. As to conditions: for SI P. falciparum: selectivity index determined with L6 cells. How it is done: as §1, §2
A short description of data set [6]: Cytotoxicity against mammalian cells. It counts as cell-based, rat. The procedure:
as §2

Data set [7] concerns T.b. brucei. Also on record: method as in PMID 21843897. The settings on record: cited from earlier work.
Data set [8] relates to P. falciparum K-1 strain. More on the design: method as in PMID 16309313. The settings on record: read-out: IC50 antiplasmodial activity; cited from earlier work.
Data set [9] concerns P. falciparum strain 3D7. More on the design: method as in PMID 15104493. As to conditions: read-out: IC50 in vitro antiplasmodial effect; cited from earlier work.
Data set [10] relates to erythrocytes. Also on record: method as in PMID 15104493. As to conditions: cited from earlier work.
Data set [11] relates to T. b. rhodesiense. Also on record: method as in PMID 24165182. The settings on record: in words; cited from earlier work.
Where [12] appears, read: STIB 900 strain, trypomastigotes, geometric mean of 2 experiments ±SE (values marked a: only one experiment).
Setting [13] is: NF54 strain, intra-erythrocytic stages, geometric mean of 2 experiments ±SE (values marked a: only one experiment), read-out: IC50 P. falciparum.
Setting [14] is: Plasmodium falciparum, NF54, NF54 strain, intra-erythrocytic stages, geometric mean of 2 experiments ±SE (values marked a: only one experiment), read-out: IC50 P. falciparum.
Setting [15] is: L6-cell-line from rat-skeletal myoblasts, geometric mean of 2 experiments ±SE, read-out: IC50 L6 Cells (cytotoxicity).

“Also recorded” adds a separate entry of the source. Like-named read-outs stand apart in the source and are kept apart here.

Here are results for 17 molecules from publication PMC6274167, “ent-Pimarane and ent-Kaurane Diterpenes from Aldama discolor (Asteraceae) and Their Antiprotozoal Activity” (Molecules, 2016).

For orientation: IC50 means the midpoint of a concentration-inhibition curve. Regarding 3β-acetoxy-ent-8(14),15-pimaradiene, in data set [1], the IC50 is 149 µM.
Take `C=C1C[C@@]23CC[C@@H]4[C@](C)(CO)[C@H](O)CC[C@@]4(C)[C@@H]2CC[C@@H]1C3` (single isomer, unassigned; ent-3) [Compound 1, ent-3-α-hydroxy-kaur-16-en-18-ol]: the half-maximal inhibitory concentration (IC50) came out at 2.5 ± 1.5 µM in data set [2]; 20.1 ± 0.5 µM in data set [3] (setting [12]); 55.6 µM in data set [4]; 3.5 ± 0.2 µM in data set [5] (setting [13]); 3.54 µM in data set [5] (setting [14]); 40.2 ± 5.5 µM in data set [6] (setting [15]). The “SI L. donovani” value in [2] was 16. For the same molecule, the “SI T. b. rhodesiense” value in [3] is reported as 2. For the same molecule, the “SI T. cruzi” value in data set [4] stood at 1. For the same molecule, the “SI P. falciparum” value in data set [5] was 11.
On to `C=CC1(C)CCC2=C(C1)C(=O)CC1C(C)(CO)CCCC21C` (single isomer, unassigned; ent-7) [Compound 2, ent-7-oxo-pimara-8,15-diene-18-ol], for which the 50% inhibitory concentration (IC50) was found to be 18.2 µM in [2]; 24.3 µM in data set [3] (setting [12]); 15.4 µM in data set [4]; 3.8 µM in [5] (setting [13]); 3.85 µM in data set [5] (setting [14]); 48.3 ± 5.9 µM in data set [6] (rat). For the same molecule, the “SI L. donovani” value in data set [2] is reported as 3. The “SI T. b. rhodesiense” value in data set [3] is recorded as 2. In addition, the “SI T. cruzi” value in data set [4] amounted to 3. Further, the “SI P. falciparum” value in data set [5] is 13.
Consider `C=CC1(C)CCC2=C(C1)C(=O)CC1C2(C)CCC(O)C1(C)C` (single isomer, unassigned; ent-7) [Compound 3, ent-7-oxo-pimara-8,15-diene-3β-ol], for which the half-inhibitory concentration (IC50) in data set [2] was determined as 13.8 µM; in data set [4], 19.4 µM; in data set [5] (setting [14]), 16.5 ± 4.9 µM; in data set [6] (rat), 69.3 ± 10.9 µM. The “SI L. donovani” value in [2] stood at 5. Moreover, the “SI T. cruzi” value in data set [4] is recorded as 4. Further, the “SI P. falciparum” value in data set [5] is 4.
`C=C[C@@]1(C)CC[C@@H]2[C@](O)(CC[C@@H]3[C@](C)(CO)CCC[C@]32C)C1` (single isomer, unassigned; ent-15) [ent-15-pimarene-8β,19-diol]: the IC50 in data set [1] is 116 µM.
Take `C=C1C(=O)C23CCC4C(C)(C)CCCC4(C)C2C(O)CC1C3` (single isomer, unassigned; ent-16) [11α-Hydroxy-ent-16-kauren-15-one]: in data set [7] (cytotoxicity determined with a human embryonic cell line (MRC-5)), the SI is 3.2. Besides, in [7] (read-out: IC50 against T.b. brucei), the IC50 was 0.761 µM.
Consider `C=CC1(C)C=C2CCC3C(C)(C)CC(O)C(O)C3(C)C2C(O)C1` (centres unmarked) [1,2,11-trihydroxypimara-8(14),15-diene], for which, in [8], the IC50 was 27.4 µM.
Regarding `C=CC1(C)C=C2CCC3C(C)(C)CCC(O)C3(C)C2C(O)C1` (centres unmarked) [1,11-dihydroxypimara-8(14),15-diene], in [8], the half-maximal inhibitory concentration (IC50) is 9.8 µM.
As for `C=C[C@@]1(C)CCC2=C(CC[C@H]3C(C)(C)[C@@H](O)CC[C@]23C)C1` [8(9),15-isopimaradien-3β-ol], in [9], the half-inhibitory concentration (IC50) was 24.5 µM.
Consider `C=C[C@]1(C)C=C2CC[C@H]3[C@](C)(CO)[C@@H](O)CC[C@]3(C)[C@H]2CC1` [8(14),15-isopimaradien-3β,19-diol], for which the effect on erythrocytes result in data set [10] was “induced echinocytosis at low concentrations and caused pronounced cell lysis”.
For the molecule `C=CC1(C)C=C2C(O)CC3C4(C)COC(C4)CC3(C)C2CC1` (stereo not drawn) [Compound 4, ent-2S,4S-2,19-epoxy-pimara-8(14),15-diene-7β-ol], the concentration for half-maximal inhibition (IC50) is 21.9 µM in [2]; 47.3 ± 4.1 µM in [3] (setting [12]); 58.9 µM in data set [4]; 16.1 ± 6.1 µM in [5] (setting [14]); 101 ± 45.7 µM in [6] (rat). In [2], the “SI L. donovani” value stood at 5. Also, the “SI T. b. rhodesiense” value in data set [3] is 2. Also, the “SI T. cruzi” value in [4] amounted to 2. Moreover, the “SI P. falciparum” value in [5] was found to be 6.
For `C=C1C(=O)O[C@@H]2/C=C(/CO)C3=CC(=O)[C@@](C)(C[C@@H](OC(=O)/C(C)=C/C)[C@@H]12)O3` [Compound 5, budlein A], the “activity against T. b. rhodesiense in vitro” value in data set [11] is “strong anti-T. b. rhodesiense activity; also recorded: exceptionally strong activity”.
`O=C(Cn1ccnc1[N+](=O)[O-])NCc1ccccc1` [benznidazole, reference compound] came in with a half-inhibitory concentration (IC50) in [4] of 0.653 ± 0.135 µM.
On to `CCN(CC)CCCC(C)Nc1ccnc2cc(Cl)ccc12` (centres unmarked) [chloroquine, reference compound], for which the concentration for half-maximal inhibition (IC50) in data set [5] (Plasmodium falciparum, NF54, read-out: IC50 P. falciparum) was 0.003 ± 0.001 µM.
Take `Nc1nc(N)nc(Nc2ccc([As]3SCC(CO)S3)cc2)n1` (centres unmarked) [melarsoprol, reference compound]: the half-inhibitory concentration (IC50) in data set [3] was found to be 0.025 ± 0.0005 µM.
On to `CCCCCCCCCCCCCCCCOP(=O)([O-])OCC[N+](C)(C)C` [miltefosine, reference compound], for which the concentration for half-maximal inhibition (IC50) in [2] amounted to 0.049 ± 0.001 µM.
On to `COc1cc([C@@H]2c3cc4c(cc3[C@H](O)[C@H]3COC(=O)[C@H]23)OCO4)cc(OC)c1OC` [podophyllotoxin, reference compound], for which the IC50 in data set [6] (setting [15]) was 0.008 µM.
